The values below come from ChEMBL document CHEMBL4390668, “Discovery and Structural Optimization of Acridones as Broad-Spectrum Antimalarials” (J Med Chem, 2019).

Each structure is given as a SMILES string. Active and inactive are the calls of the source. A value given as a limit tells only on which side of the number the result lay.

The test system of data set [1] is Plasmodium falciparum. The data set is described as follows: Antimalarial activity against atovaquone-resistant Plasmodium falciparum Tm90-C2B infected in human erythrocytes by SYBR green 1-based fluorescence assay. It counts as functional, organism-based.
Data set [2] in a line: Half life in mouse liver microsomes at 1 uM by LC-MS analysis. It counts as ADME, Microsome. (In general: Liver microsomes are a subcellular fraction often used to study metabolism.)
Data set [3] can be described thus: Selectivity index, ratio of IC50 for human HepG2 cells to IC50 for chloroquine-sensitive Plasmodium falciparum D6 infected in human erythrocytes. It counts as toxicity, cell-based. To be noted: read-out: Ratio IC50.
A short description of data set [4]: Half life in human liver microsomes at 1 uM by LC-MS analysis. It counts as ADME, Microsome.
Data set [5] deals with HepG2. The data set is described as follows: Cytotoxicity against human HepG2 cells measured after 24 to 36 hrs by resazurin dye based fluorescence assay. It counts as cell-based. (Alamar Blue is a resazurin reagent that responds to reducing activity.)
In data set [6] the test system is Plasmodium berghei. The data set is described as follows: Antimalarial activity against luciferase-expressing Plasmodium berghei ANKA 676m1cl1 sporozoites infected in human HepG2A16 cells measured after 45 hrs by luciferase-luciferin based reporter assay. It counts as functional, organism-based. As to conditions: ANKA 676m1cl1, HepG2A16, 45 h. In general terms: Reporter assays use an easily measured gene product as a stand-in for the process of interest.

For data set [7], the system named is Plasmodium falciparum. Kind of data set: Antimalarial activity against multidrug-resistant Plasmodium falciparum Dd2 infected in human erythrocytes by SYBR green 1-based fluorescence assay. It counts as functional, organism-based.
Data set [8] concerns Plasmodium falciparum. The data set is described as follows: Antimalarial activity against multidrug-resistant Plasmodium falciparum 7G8 infected in human erythrocytes by SYBR green 1-based fluorescence assay. It counts as functional, organism-based.
Data set [9] concerns Plasmodium falciparum. Kind of data set: Antimalarial activity against chloroquine-sensitive Plasmodium falciparum D6 infected in human erythrocytes by SYBR green 1-based fluorescence assay. It counts as functional, organism-based.
Data set [10] has as its system Plasmodium falciparum. Kind of data set: Inhibition of Plasmodium falciparum cytochrome b-c1.
The subject of data set [11] is Plasmodium falciparum. The data set is described as follows: Antimalarial activity against drug-resistant Plasmodium falciparum Dd2 harboring V259L mutant infected in human erythrocytes after 72 hrs by SYBR green 1-based fluorescence assay. As to conditions: Dd2, 72 h. It counts as functional, organism-based.
The subject of data set [12] is Plasmodium falciparum. The data set is described as follows: Antimalarial activity against drug-resistant Plasmodium falciparum Dd2 harboring M133I/A138T double mutant infected in human erythrocytes after 72 hrs by SYBR green 1-based fluorescence assay. It counts as functional, organism-based. To be noted: Dd2, 72 h.
The subject of data set [13] is Plasmodium falciparum. The data set is described as follows: Antimalarial activity against Plasmodium falciparum 3D7 infected in human erythrocytes after 72 hrs by SYBR green 1-based fluorescence assay. It counts as functional, organism-based. To be noted: 3D7, 72 h.
Data set [14] deals with Plasmodium falciparum. Kind of data set: Antimalarial activity against drug-resistant Plasmodium falciparum 3D7 harboring A82T/V259L double mutant infected in human erythrocytes after 72 hrs by SYBR green 1-based fluorescence assay. It counts as functional, organism-based. As to conditions: 3D7, 72 h.

As for `CCCN(CCC)CCOc1ccc2c(=O)c3c(Cl)cc(OC)cc3[nH]c2c1`, the concentration for half-maximal inhibition (IC50) (usually the midpoint of a concentration-inhibition curve) is 81 nM in [1]; above 200000 nM in data set [5]; 2.9 nM in data set [6]; 4.2 nM in data set [7]; 6.2 nM in data set [8]; 0.65 nM in data set [9]. Further, the half-life – broadly, the time needed for the level to fall by half in the phase considered – at 1 µM came out at 10 min in data set [2] and 7 min in data set [4]. Also, the selectivity ratio in [3] was above 308000.
`O=c1c2ccc(OCCCl)cc2[nH]c2ccc(Cl)c(Cl)c12`: the IC50 was 1380 nM in [1]; above 100000 nM in data set [5]; 183 nM in data set [6]; 27 nM in data set [7]; 45 nM in data set [8]; 2.5 nM in data set [9]. Further, the half-life at 1 µM in [2] and in [4] was above 60 min each time. The selectivity ratio in [3] is above 40000.
In the case of `CCCN(CCC)CCOc1ccc2c(=O)c3cc(Cl)ccc3[nH]c2c1`, the IC50 in [1] is 317 nM; in [5], above 100000 nM; in data set [6], 12.5 nM; in [7], 15 nM; in data set [8], 9.2 nM; in data set [9], 3.6 nM. The half-life at 1 µM came to 16 min in [2] and 12 min in [4]. Also, in data set [3], the selectivity ratio is above 27800.
As for `O=c1c2ccc(OCCCCl)cc2[nH]c2cc(Cl)cc(Cl)c12`, the IC50 was 70 nM in data set [1]; above 100000 nM in data set [5]; 523 nM in [6]; 2.9 nM in data set [7]; 6.6 nM in data set [8]; 2.2 nM in [9]. Further, the figures for the half-life at 1 µM in data set [2] and in [4] were 55 min and above 60 min, respectively. Besides, the selectivity ratio in data set [3] is above 45500.
As for `O=c1c2ccc(OCCNC34CC5CC(CC(C5)C3)C4)cc2[nH]c2ccc(Cl)c(Cl)c12`, the IC50 is 163 nM in [1]; 10000 nM in data set [5]; 1100 nM in data set [11]; 86 nM in data set [6]; 77 to 390 nM in data set [7]; 176 nM in data set [8]. The IC50 in data set [9] came to 30 nM. In [3], the selectivity ratio amounted to 333. Besides, the inhibition result in data set [10] was “inactive”.
As for `O=c1c2ccc(OCCCC(F)(F)F)cc2[nH]c2cc(F)cc(F)c12`, the half-maximal inhibitory concentration (IC50) in data set [1] is 40 nM; in [5], above 200000 nM; in data set [6], 48 nM; in [7], 0.033 nM; in [8], 0.5 nM; in data set [9] it was 0.027 nM. Besides, the values for the half-life at 1 µM in [2] and in data set [4] were 59 min and above 60 min, respectively. Also, in [3], the selectivity ratio was above 200000.
For `O=c1c2ccc(Cl)cc2[nH]c2cc(OCCN3CCCC3)ccc12`, the IC50 in data set [1] amounted to 1500 nM; in data set [5], 25500 nM; in data set [6], 456 nM; in [7], 781 nM; in data set [8], 959 nM; in data set [9], 529 nM. In addition, the selectivity ratio in data set [3] came to 48.
As to `CC(C)(C)NCCCCOc1ccc2c(=O)c3c(F)cc(F)cc3[nH]c2c1`, the IC50 in [1] is above 2500 nM; in [5] it was 101000 nM; in data set [6], 362 nM; in [7], 265 nM; in data set [8] it was 14 nM; in data set [9] it was 75 nM. Also, the half-life at 1 µM in data set [2] and in data set [4] was above 60 min each time. The selectivity ratio in [3] came to 1350.
For the molecule `O=c1c2ccc(OCCCCCl)cc2[nH]c2cc(F)cc(F)c12`, the IC50 in [1] was 40 nM; in [5], above 100000 nM; in data set [6] it was 17 nM; in data set [7], 0.16 nM; in data set [8], 0.5 nM; in data set [9] it was 0.12 nM. For the same molecule, the figures for the half-life at 1 µM in data set [2] and in [4] were 6 min and 14 min, respectively. Further, in [3], the selectivity ratio was above 100000.
Consider `CCN(CC)CCOc1ccc2c(=O)c3cc(Cl)ccc3[nH]c2c1`, for which the IC50 in [1] is 1160 nM; in data set [5], above 100000 nM; in data set [6], 221 nM; in data set [7], 351 nM; in data set [8], 304 nM. For the same molecule, the selectivity ratio in data set [3] is above 473.
Take `CCN(CC)CCOc1ccc2c(=O)c3ccc(Br)cc3[nH]c2c1`: the IC50 in data set [1] is 968 nM; in data set [5], above 40000 nM; in data set [6] it was 100 nM; in data set [7] it was 34 nM; in data set [8], 37 nM; in data set [9], 25 nM. In addition, the half-life at 1 µM in data set [2] and in data set [4] was above 60 min throughout. In data set [3], the selectivity ratio was above 1600.
Take `CCCN(CCC)CCOc1ccc2[nH]c3cc(F)cc(F)c3c(=O)c2c1`: the IC50 in data set [1] was determined as 270 nM; in [5], 20200 nM; in data set [6] it was 0.75 nM; in [7], 1 nM; in data set [8], 3.2 nM; in data set [9], 0.4 nM. In data set [3], the selectivity ratio stood at 50600.
Turning to `CCN(CC)CCOc1ccc2c(=O)c3ccccc3[nH]c2c1`, the IC50 stood at 2530 nM in data set [1]; 96800 nM in [5]; 503 nM in data set [6]; 1190 nM in data set [7]; 1350 nM in data set [9]. Moreover, the selectivity ratio in data set [3] is 72.
Turning to `CCN(CC)CCCC(C)Nc1ccnc2cc(Cl)ccc12` (centres undefined) [CHLOROQUINE], the inhibition entry in [10] was “inactive”. Also, 260 nM corresponded to half-maximal inhibition in [11] (IC50).
Turning to `CCCN(CCC)CCOc1ccc2[nH]c3cc(OC)cc(F)c3c(=O)c2c1`, the IC50 turned out to be 47 nM in data set [1]; 26400 nM in data set [5]; 0.65 nM in [6]; 0.13 nM in data set [7]; 0.42 nM in data set [8]; 0.7 nM in data set [9]. Besides, the selectivity ratio in data set [3] stood at 37700.
`CCN(CC)CCCCCOc1ccc2c(=O)c3ccc(Cl)cc3[nH]c2c1`: the IC50 is 1040 nM in [1]; 31300 nM in data set [5]; 202 nM in data set [6]; 511 nM in [7]; 540 nM in [9]. The half-life at 1 µM in data set [2] and in [4] was above 60 min throughout. Moreover, the selectivity ratio in data set [3] was determined as 58.
Consider `O=c1c2ccc(OCCCCl)cc2[nH]c2ccc(Cl)c(Cl)c12`, for which the IC50 in data set [1] is 1040 nM; in data set [5], above 100000 nM; in [12], 324 nM; in data set [13] it was 11.1 nM; in [11] it was 551 nM; in data set [7], 17 to 22 nM. The figures for the concentration for half-maximal inhibition (IC50) in data set [8], in data set [9] and in data set [14] were 3.1 nM, 3.2 nM and 605 nM, respectively. Also, the selectivity ratio in data set [3] is above 31200. Further, the inhibition result in data set [10] is “inactive”.
Consider `CCN(CC)CCCOc1ccc2c(=O)c3ccc(Cl)cc3[nH]c2c1`, for which the IC50 in [1] came to 1890 nM; in data set [5], 19700 nM; in [6] it was 436 nM; in [7] it was 254 nM; in data set [8], 294 nM; in data set [9] it was 272 nM. For the same molecule, the half-life at 1 µM in data set [2] is 34 min; in data set [4], above 60 min. Besides, in data set [3], the selectivity ratio amounted to 72.
`CCCN(CCC)CCOc1ccc2c(=O)c3ccc(Cl)cc3[nH]c2c1`: the half-inhibitory concentration (IC50) in data set [1] is 1540 nM; in [5], 40600 nM; in data set [6] it was 14.8 nM; in data set [7], 11 nM; in data set [8] it was 9.1 nM; in data set [9], 2.5 nM. The half-life at 1 µM in data set [2] and in data set [4] was above 60 min each time. In addition, the selectivity ratio in data set [3] turned out to be 16300.
Turning to `CN1CCCC1CCOc1ccc2c(=O)c3c(Cl)c(Cl)ccc3[nH]c2c1` (centres undefined), the IC50 in data set [1] was 368 nM; in [5] it was 47600 nM; in [11] it was 3110 nM; in [7] it was 172 to 616 nM; in data set [8] it was 440 nM; in data set [9], 48 nM. Also, in data set [3], the selectivity ratio came to 992. Also, the inhibition entry in [10] was “inactive”.
`CCCN(CCC)CCOc1ccc2c(=O)c3c(OC)cc(Cl)cc3[nH]c2c1`: the IC50 is above 2500 nM in data set [1]; 45000 nM in [5]; 184 nM in data set [7]; 251 nM in [8]; 251 nM in data set [9]. Besides, the selectivity ratio in [3] is 179.
In the case of `CCN(CC)CCOc1ccc2c(=O)c3ccc(F)cc3[nH]c2c1`, the IC50 in data set [1] was 1670 nM; in [5], 47900 nM; in data set [6], 119 nM; in [7] it was 485 nM; in data set [8] it was 353 nM; in [9], 377 nM. Further, the half-life at 1 µM in data set [2] and in data set [4] was above 60 min throughout. The selectivity ratio in data set [3] came to 127.
`CC(C)(C)NCCOc1ccc2c(=O)c3c(Cl)c(Cl)ccc3[nH]c2c1`: the IC50 was above 2500 nM in [1]; 38400 nM in [5]; 3070 nM in data set [11]; 139 to 679 nM in [7]; 295 nM in data set [8]; 106 nM in [9]. The selectivity ratio in data set [3] was determined as 362. Moreover, in [10], the inhibition result is “inactive”.
